Results: patent US7201899B2, “Materials and methods for management of hyperacute rejection in human xenotransplantation” (BresaGen Limited, priority 1994, dated 2007)

Tested on: porcine cells (PAE's and PK1's)
Experiment: Complement-mediated lysis of porcine cells (51CR release and LDH release assays)
Assay type: cell-based
Details: effective sugar concentrations covered about 10 mM
Protocol: The ability of human serum to cause the lysis of porcine cells was examined using both pig epithelial (PK1) and aortic endothelial (PAE's) cells, the isolation and culture of which is described in Example 2. Cell lysis was determined using either the ^51Chromium release assay as described by Cerottini and Brunner, Nature New Biol. 237:272, 1972 or the Cytotox LDH release assay according to the manufacturer's instructions (Promega, USA).
A. ^51CR Release Assay • 1. Preparation of Cells: • a) Trypsinize a confluent flask of cells. On average, approximately 3×10^6 PAE's and approximately 3×10^7 PK1 cells are obtained per 10 ml flask. About 1×10^5 cells are required for each well in the 5CR Release Assay. • b) Wash cells […] in 10 ml RPMI (no FCS); spin 1200 rpm for 5 min. • c) Resuspend cells in 100 μl RPMI (with 10% heat-inactivated FCS; see below). • 2. […]

Q: How did the “protection of porcine cells from complement-induced lysis” value turn out when `O=C[C@H](O)[C@@H](O)[C@H](O)[C@H](O)CO[C@H]1O[C@H](CO)[C@H](O)[C@H](O)[C@H]1O` [Melibiose, 6-O-α-D-galactopyranosyl-D-glucose] was run?
A: Its value is “protects the porcine cells from lysis”.
